Measured values from US10617677B2, “Nuclear transport modulators and uses thereof” (Biogen MA Inc., priority 2012, dated 2020).

What was measured:
[1] = test system: Nrf2 pathway; assay: Nrf2 pathway induction in THP-1 cells with or without KEAP1 knockdown (quantitative PCR); type: cell-based, human
Text: THP-1 (human acute monocytic leukemia cells) cells were used to evaluate the effects of Compound 1 on the Nrf2 pathway in an inflammation environment. Nuclear factor (erythroid-derived 2)-like 2 (Nrf2) is an anti-inflammatory transcription factor. Under normal conditions, Nrf2 is kept in the cytoplasm by Kelch like-ECH associated protein 1 (KEAP1), which degrades Nrf2 by ubiquitination. Nrf2 can also move into the nucleus and back into the cytoplasm as a CRM1 cargo. In the current study, Nrf2 was protected from degradation by knocking down KEAP1 with siRNA. Then, KEAP1-depleted cells were treated with TNFα to induce inflammation, and the ability of Compound 1 to reverse inflammation by up-regulation of the Nrf2 pathway was tested.
THP-1 (acute monocytic leukemia) cells were plated in two 10 cm culture dishes (6*10^6 cells/dish) with RPMI-1640 medium (Lonza) supplemented with 10% heat-inactivated fetal bovine serum (Invitrogen) and 2-mercaptoethanol to a final concentration of 0.05 mM. Cells in one dish were transfected with 50 nM of KEAP1 siRNA (Life Technologies, Silencer Select, siRNA ID # s18982) using Lipofectamine RNAiMax (Invitrogen), whereas the cells in the other dish were transfected with 50 nM of control siRNA, Block-iT (Invitrogen). Transfected cells were left for 72 h and the KEAP1 knockdown efficiency was calculated with quantitative PCR using a probe against KEAP1.
Next, the cells from each of the dishes were divided equally into 4 wells in different 6-well plates. One of the wells from each of the plates was pre-treated with 1 μM of Compound 1 for 1 h, followed by 20 ng/mL TNFα for 24 h. The other wells were treated with either 1 μM Compound 1 or 20 ng/mL TNFα or neither for 24 h. Following the treatment, RNA was extracted from the cells using an RNA extraction kit (Qiagen). RNA samples from each treatment group were reverse transcribed and real-time PCR was performed on the corresponding cDNA sequences using probes against Nrf2 and two of its downstream genes, NQO1 and EPHX1. THP-1 cells were transfected with KEAP1 siRNA. 40% knockdown efficiency was achieved. The KEAP1 knockdown cells were treated with either 1 μM of Compound 1 or 20 ng/mL of TNFα or both together for 24 h.

[2] = test system: NF-κB; assay: NF-κB transcriptional activity in TNFα-induced HeLa cells; type: cell-based; conditions: Homo sapiens, 1 h pre-treatment, then 4 h of 20 ng/mL TNFα, average of three experiments, read-out: IC50, inhibition of NF-κB transcriptional activity
Method: The compounds were tested on HeLa (adenocarcinoma) cells to quantify their ability to inhibit NF-κB transcriptional activity. NF-κB activity was induced in HeLa cells by TNFα, and then the compounds were added to inhibit the induced NF-κB activity. Half maximal inhibitory concentrations (IC50) of several compounds, namely Compound 1, Compound 2 and Compound 12, were determined by dose response studies.
HeLa cells were plated in a 12-well plate (200,000 cells/well) and cultured in Eagle's Minimal Essential medium (EMEM) from Lonza supplemented with 10% heat-inactivated fetal bovine serum (Invitrogen) and 50 μg/mL penicillin/streptomycin (Invitrogen), and were left overnight to attach. Cells were pre-treated with serial diluted (started at 30 µM; 1:3 dilution) compounds for 1 h and then exposed to 20 ng/mL TNFα (Peprotech) for 4 h in serum free media. After the treatment, the cells were washed with PBS (Invitrogen), and lysed with RIPA buffer (Themo Scientific). The transcription activity of NF-κB in the cells was measured by Chemiluminescent Transcription Factor Assay kit (Thermo Scientific Catalog #89859), according to the manufacturer's instruction. Briefly, 1.5 mg/mL of RIPA lysed whole cell extract from each treatment were incubated in a 96-well plate bound with NF-κB biotinylated-consensus sequence. The active NF-κB transcription factor bound to the consensus sequence was incubated with NF-κB p65 primary antibody and then with a secondary HRP-conjugated antibody. A chemiluminescent substrate was added to the wells and the resulting signal was detected using a luminometer. Three separate experiments were analyzed for each concentration of the IC50 curves. XLFit model 205 was used to calculate IC50 curves.
Inhibition of NF-κB transcriptional activity was measured by serial dilutions of Compound 1, Compound 2 and Compound 12 after 1 h of compound pre-treatment followed by 4 h of 20 ng/mL TNFα exposure. Three independent experiments were scored for each concentration, with the average being presented here.

[3] = 1 μM Compound 1 + 20 ng/mL TNFα, 24 h, KEAP1 knockdown
[4] = 1 μM Compound 1 + 20 ng/mL TNFα, 24 h, without KEAP1 knockdown

| Structure (SMILES) | increase in NQO1 expression [1, 3] | increase in Nrf2 expression compared to untreated cells [1, 3] | increase in NQO1 expression [1, 4] | increase in Nrf2 mRNA levels [1, 4] | induction of EPHX1 expression [1, 4] | EPHX1 mRNA expression ([1]; 1 μM Compound 1, presence or absence of TNFα) | Nrf2 expression ([1]; 1 μM Compound 1 alone, with or without KEAP1 knockdown) | Nrf2 signaling ([1]; 1 μM for 24 hrs in the presence of 20 ng/mL TNFα) | IC50 [2] |
| --- | --- | --- | --- | --- | --- | --- | --- | --- | --- |
| CC(C)(C)C(=O)NNC(=O)/C=C\n1cnc(-c2cc(C(F)(F)F)cc(C(F)(F)F)c2)n1 [Compound 1, (Z)-3-(3-(3,5-bis(trifluoromethyl)phenyl)-1H-1,2,4-triazol-1-yl)-N′-pivaloylacrylohydrazide] | 4 fold | 2.5 fold | 2 fold | ≤ 3 fold | 1.5 fold | up-regulated the expression of EPHX1 | did not have any significant effect | up-regulated Nrf2 signaling | 1.59 µM |
| O=C(/C=C\n1cnc(-c2cc(C(F)(F)F)cc(C(F)(F)F)c2)n1)NNC(=O)CN1CCOCC1 [Compound 2, (Z)-3-(3-(3,5-bis(trifluoromethyl)phenyl)-1H-1,2,4-triazol-1-yl)-N′-(2-morpholinoacetyl)acrylohydrazide] | – | – | – | – | – | – | – | – | 1.22 µM |
